Laboratory results from patent publication EP1258532A1, “Thermostable D-hydantoinase from Bacillus circulans and the application thereof” (NATIONAL SCIENCE COUNCIL, priority 2001, dated 2002).

Legend:
D-hydantoinase [1] = assay: Effects of metal ions on D-hydantoinase activity; assay type: biochemical, Bacillus circulans; conditions: ion 500 µM; for Specific activity: 15 min at room temperature, substrate 10 mM D,L-p-HPH in 50 mM Tris-HCl (pH 8.0); for Relative activity: activity percentage based on that without adding ions
Method: Various divalent metal ions (as set forth in Table 1 below) were added to the vector pQE-bcidht in E. coli NovaBlue, crude extracts thereof or the purified D-hydantoinase of the present invention at 500 µM concentration. After 15 minutes of incubation at room temperature, 10 mM substrate of D,L-p-HPH (dissolved in 50 mM Tris-HCl (pH 8.0)) was added. The specific activity of the enzyme was then measured.

D-hydantoinase [2] = assay: Effects of H2O2, NaCl and NH4Cl on D-hydantoinase activity; assay type: biochemical, Bacillus circulans; conditions: in the presence of 0.8 M H2O2; 25°C for 10 min, residual H2O2 removed with catalase; 800000 µM
Method: The vector pQE-bcidht in E. coli NovaBlue, crude extracts thereof or the purified D-hydantoinase of the present invention was incubated at 25°C for 10 min. Afterwards, the catalase was added to the solution to remove residual H2O2, and then the enzyme activity was measured. In addition, various concentrations of NaCl and NH4Cl were added to the solution containing D-hydantoinase. The solution was incubated at room temperature for 10 min, and the enzyme activity was measured.

Substance	Specific activity (D-hydantoinase [1])	Relative activity (D-hydantoinase [1]; 15 min)	Relative activity (D-hydantoinase [1])	inhibition of D-hydantoinase activity (D-hydantoinase [1]; substrate 10 mM D,L-p-HPH)	retained enzyme activity (D-hydantoinase [2])
FeSO2	2.52 unit/mg	87.5%			
ZnSO4	1.44 unit/mg		50%	50%	
H2O2					85%
NiSO4	4.00 unit/mg		139%		
MgSO4	2.69 unit/mg		94%		
